This experiment deals with T1, human TLR9 (Homo sapiens, UniProt Q9NR96).
T1 construct: host or cells: HEK-Blue cells (HEK293-derived reporter line)
T1 sequence (Q9NR96 26-1032): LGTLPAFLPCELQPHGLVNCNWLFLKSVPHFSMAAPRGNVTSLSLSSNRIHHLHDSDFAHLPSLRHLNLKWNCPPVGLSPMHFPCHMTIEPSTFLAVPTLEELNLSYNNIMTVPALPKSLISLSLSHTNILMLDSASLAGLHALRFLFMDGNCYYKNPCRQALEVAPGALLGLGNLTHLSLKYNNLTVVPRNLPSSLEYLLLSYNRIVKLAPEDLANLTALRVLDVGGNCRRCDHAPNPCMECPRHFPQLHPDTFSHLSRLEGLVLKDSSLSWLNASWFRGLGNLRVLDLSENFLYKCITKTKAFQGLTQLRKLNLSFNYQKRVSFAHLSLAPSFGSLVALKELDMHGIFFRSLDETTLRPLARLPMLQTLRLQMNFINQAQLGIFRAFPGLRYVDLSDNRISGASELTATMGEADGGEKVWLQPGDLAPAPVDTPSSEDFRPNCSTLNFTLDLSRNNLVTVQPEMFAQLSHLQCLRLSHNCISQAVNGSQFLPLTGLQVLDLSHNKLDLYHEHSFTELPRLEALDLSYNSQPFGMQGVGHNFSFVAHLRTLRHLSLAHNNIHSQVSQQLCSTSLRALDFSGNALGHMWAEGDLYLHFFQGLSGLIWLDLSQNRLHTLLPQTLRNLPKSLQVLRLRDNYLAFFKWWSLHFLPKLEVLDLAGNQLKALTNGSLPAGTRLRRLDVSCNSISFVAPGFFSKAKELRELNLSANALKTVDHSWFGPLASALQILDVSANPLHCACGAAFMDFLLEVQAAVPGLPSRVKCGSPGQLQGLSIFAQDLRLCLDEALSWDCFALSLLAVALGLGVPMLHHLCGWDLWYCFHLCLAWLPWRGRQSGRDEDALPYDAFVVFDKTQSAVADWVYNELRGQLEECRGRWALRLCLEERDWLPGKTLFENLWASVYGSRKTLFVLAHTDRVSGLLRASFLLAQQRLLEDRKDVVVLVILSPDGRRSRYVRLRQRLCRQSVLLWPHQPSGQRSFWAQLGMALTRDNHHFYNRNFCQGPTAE
The experiment is described as follows: TLR9 inhibition reporter assay (HEK-Blue cells, secreted embryonic alkaline phosphatase reporter). The experiment is classed as cell-based. Summed up:
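Inhibitors are tested in dose response (0.05 nM–50 μM) on HEK-Blue reporter cells expressing human TLR7, TLR8 or TLR9. After 30 min at room temperature, each line is stimulated with its own agonist (gardiquimod 7.5 μM, R848 15.9 μM or ODN2006 5 nM, final) and SEAP is measured 22 h later.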
(Reporter assays use an easily measured gene product as a stand-in for the process of interest.)

Where [1] appears, read: HEK-Blue cells overexpressing human TLR9, stimulated with ODN2006 5 nM, read-out: TLR 9 IC50.
Setting [2] is: HEK-Blue cells overexpressing human TLR9, stimulated with ODN2006 5 nM, 22 hour incubation, reporter readout.
[3] abbreviates: HEK-Blue human TLR9 reporter cells.

The values below come from patent US12492188B2, “1H-benzo[D]imidazole derivatives as TLR9 inhibitors for the treatment of fibrosis” (BRISTOL-MYERS SQUIBB COMPANY, priority 2020, dated 2025).

As usually defined, the IC50 is the point on the concentration scale where inhibition reaches its midpoint.

SMILES strings stand for the structures. Read-outs that look alike come from different tables or passages of the source.

For the molecule `Cc1cc(C2CCN(C3CC4CCC(C3)N4CC3CCC3)CC2)cc2c1nc(-c1ccc(S(C)(=O)=O)cc1)n2C` (single isomer, unassigned) [Example 157, 6-(1-(8-(cyclobutylmethyl)-8-azabicyclo[3.2.1]octan-3-yl)piperidin-4-yl)-1,4-dimethyl-2-(4-(methylsulfonyl)phenyl)-1H-benzo[d]imidazole], it took 340 nM to reach half-maximal inhibition (IC50). The IC50 under setting [1] was 339 nM.

Take `Cc1cc(C2CCN(C3CC4(C3)CN(C(C)C)C4)CC2)cc2c1nc(-c1ccc(S(C)(=O)=O)cc1)n2C` [Example 139, 6-(1-(2-isopropyl-2-azaspiro[3.3]heptan-6-yl)piperidin-4-yl)-1,4-dimethyl-2-(4-(methylsulfonyl)phenyl)-1H-benzo[d]imidazole]: the IC50 amounted to 210 nM. Also, under setting [1], the IC50 amounted to 211 nM.

Turning to `Cc1cc(C2CCN(C3CCCN(CC4CCC4)CC3)CC2)cc2c1nc(-c1ccc(S(C)(=O)=O)cc1)n2C` (stereo not drawn) [Example 138, 6-(1-(1-(cyclobutylmethyl)azepan-4-yl)piperidin-4-yl)-1,4-dimethyl-2-(4-(methylsulfonyl)phenyl)-1H-benzo[d]imidazole], half-maximal inhibition (IC50) was put at 62 nM. Besides, under setting [1], the IC50 stood at 62 nM.

For `Cc1cc(C2CCN(C3CCN(CC(C)C)CC3)CC2)cc2[nH]c(-c3ccc(S(=O)(=O)c4ccccc4)cc3)nc12` [Example 75, 6-(1′-isobutyl-[1,4′-bipiperidin]-4-yl)-4-methyl-2-(4-(phenylsulfonyl)phenyl)-1H-benzo[d]imidazole tris(2,2,2-trifluoroacetate)], the IC50 under setting [2] amounted to 63 nM and the IC50 under setting [1] came to 63 nM.

As for `CN(C)C1CCN(Cc2ccc(-c3ccc4nc(-c5cc(F)cc(F)c5)n(C)c4c3)cc2)CC1` [Example 381, 1-(4-(2-(3,5-difluorophenyl)-1-methyl-1H-benzo[d]imidazol-6-yl)benzyl)-N,N-dimethylpiperidin-4-amine], the IC50 runs as follows: under setting [2], 140 nM; under setting [1], 140 nM.

`COc1ccc(-c2nc3cc(F)c(C4CCN(C5CCN(CC(C)C)CC5)CC4)cc3[nH]2)cc1OC` [Example 130, 2-(3,4-dimethoxyphenyl)-5-fluoro-6-(1′-isobutyl-[1,4′-bipiperidin]-4-yl)-1H-benzo[d]imidazole] yielded an IC50 of 22 nM. Moreover, under setting [1], the IC50 was found to be 22 nM.

As to `COc1ccc(-c2nc3cc(F)c(C4CCN(C5CCN(C6CC6)CC5)CC4)cc3[nH]2)cc1OC` [Example 131, 6-(1′-cyclopropyl-[1,4′-bipiperidin]-4-yl)-2-(3,4-dimethoxyphenyl)-5-fluoro-1H-benzo[d]imidazole], the IC50 amounted to 59 nM. Moreover, the IC50 under setting [1] is 59 nM.

Take `Cc1cc(C2CCN(C3CCCN(CC4CC4)CC3)CC2)cc2c1nc(-c1ccc(S(C)(=O)=O)cc1)n2C` (stereo not drawn) [Example 137, 6-(1-(1-(cyclopropylmethyl)azepan-4-yl)piperidin-4-yl)-1,4-dimethyl-2-(4-(methylsulfonyl)phenyl)-1H-benzo[d]imidazole]: the IC50 is 19 nM. In addition, the IC50 under setting [1] is 19 nM.

On to `Cc1cc(C2CCN(C3CC4CCC(C3)N4CC3CC3)CC2)cc2[nH]c(-c3ccc(S(C)(=O)=O)c(F)c3)nc12` (stereo not drawn) [Example 352, 6-(1-(8-(cyclopropylmethyl)-8-azabicyclo[3.2.1]octan-3-yl)piperidin-4-yl)-2-(3-fluoro-4-(methylsulfonyl)phenyl)-4-methyl-1H-benzo[d]imidazole], for which the IC50 under setting [1] amounted to 26 nM and 26 nM corresponded to half-maximal inhibition under setting [3] (IC50).

Consider `CN(C)C1CCN(Cc2ccc(-c3ccc4nc(-c5ccc(F)c(F)c5)n(C)c4c3)cc2)CC1` [Example 382, 1-(4-(2-(3,4-difluorophenyl)-1-methyl-1H-benzo[d]imidazol-6-yl)benzyl)-N,N-dimethylpiperidin-4-amine], for which the IC50 stood at 3.2 nM under setting [2] and 3240 nM under setting [1].

As for `COc1cc(-c2nc3c(C)cc(C4CCN(C5CC6CCC(C5)N6C5CCC5)CC4)cc3n2C)cn2ncnc12` (single isomer, unassigned) [Example 356, 6-(6-(1-(8-cyclobutyl-8-azabicyclo[3.2.1]octan-3-yl)piperidin-4-yl)-1,4-dimethyl-1H-benzo[d]imidazol-2-yl)-8-methoxy-[1,2,4]triazolo[1,5-a]pyridine], the IC50 under setting [1] was determined as 41 nM and the IC50 under setting [3] turned out to be 41 nM.

On to `CN(C)C1CCN(Cc2ccc(-c3ccc4nc(-c5cccc(S(C)(=O)=O)c5)n(C)c4c3)cc2)CC1` [Example 384, N,N-dimethyl-1-(4-(1-methyl-2-(3-(methylsulfonyl)phenyl)-1H-benzo[d]imidazol-6-yl)benzyl)piperidin-4-amine], for which the IC50 turned out to be 41 nM under setting [2] and 41000 nM under setting [1].

`Cc1cc(C2CCN(C3CC4(C3)CN(CC(C)C)C4)CC2)cc2c1nc(-c1ccc(S(C)(=O)=O)cc1)n2C` [Example 141, 6-(1-(2-isobutyl-2-azaspiro[3.3]heptan-6-yl)piperidin-4-yl)-1,4-dimethyl-2-(4-(methylsulfonyl)phenyl)-1H-benzo[d]imidazole] yielded an IC50 of 250 nM. In addition, the IC50 under setting [1] came to 248 nM.

As for `CC(C)N1CC2(CN(Cc3ccc(-c4cc(F)c5nc(-c6ccc(S(C)(=O)=O)cc6)n(C6CC6)c5c4)cc3)C2)C1` [Example 410, 1-cyclopropyl-4-fluoro-6-(4-((6-isopropyl-2,6-diazaspiro[3.3]heptan-2-yl)methyl)phenyl)-2-(4-(methylsulfonyl)phenyl)-1H-benzo[d]imidazole], the IC50 by setting is: under setting [2], 44 nM; under setting [1], 44 nM.

In the case of `Cc1cc(-c2ccc(N3CCN(CC4CC4)CC3)cc2)cc2c1nc(-c1ccc(S(C)(=O)=O)cc1)n2C` [Example 171, 6-(4-(4-(cyclopropylmethyl)piperazin-1-yl)phenyl)-1,4-dimethyl-2-(4-(methylsulfonyl)phenyl)-1H-benzo[d]imidazole], the concentration for half-maximal inhibition (IC50) was 650 nM. In addition, the IC50 under setting [1] was 653 nM.

Regarding `Cc1cc2nc(-c3ccc(S(C)(=O)=O)cc3)n(C)c2cc1C1CCN(C2CCN(C(C)C)CC2)CC1` [Example 120, 6-(1′-isopropyl-[1,4′-bipiperidin]-4-yl)-1,5-dimethyl-2-(4-(methylsulfonyl)phenyl)-1H-benzo[d]imidazole], the IC50 worked out at 180 nM under setting [2] and 178 nM under setting [1].

For the molecule `Cc1cc(C2CCN(C3CCN(CC(C)C)CC3)CC2)cc2[nH]c(-c3cccc4cccnc34)nc12` [Example 82, 8-(6-(1′-isobutyl-[1,4′-bipiperidin]-4-yl)-4-methyl-1H-benzo[d]imidazol-2-yl)quinoline], the IC50 is, setting by setting: under setting [2], 32 nM; under setting [1], 32 nM.

In the case of `Cc1cc(-c2ccc(OC3CCN(CC(C)C)CC3)cc2)cc2c1nc(-c1ccc(S(C)(=O)=O)cc1)n2C` [Example 417, 6-(4-((1-isobutylpiperidin-4-yl)oxy)phenyl)-1,4-dimethyl-2-(4-(methylsulfonyl)phenyl)-1H-benzo[d]imidazole], the IC50 was 800 nM under setting [2] and 800 nM under setting [1].

In turn, `Cc1cc(C2CCN(C3CCCN(C4CCC4)CC3)CC2)cc2c1nc(-c1ccc(S(C)(=O)=O)cc1)n2C` (stereo not drawn) [Example 135, 6-(1-(1-cyclobutylazepan-4-yl)piperidin-4-yl)-1,4-dimethyl-2-(4-(methylsulfonyl)phenyl)-1H-benzo[d]imidazole] gave an IC50 of 23 nM. Besides, under setting [1], the IC50 is 23 nM.

Take `Cc1cc(C2CCN(C3CCN(CC(C)C)CC3)CC2)cc2[nH]c(-c3ccc(OC(F)(F)F)c(Cl)c3)nc12` [Example 73, 2-(3-chloro-4-(trifluoromethoxy)phenyl)-6-(1′-isobutyl-[1,4′-bipiperidin]-4-yl)-4-methyl-1H-benzo[d]imidazole tris(2,2,2-trifluoroacetate)]: the IC50 is 270 nM under setting [2] and 270 nM under setting [1].

Consider `Cc1cc(C2CCN(C3CC4CCC(C3)N4CC3CC3)CC2)cc2c1nc(-c1ccc(S(C)(=O)=O)cc1)n2C` (single isomer, unassigned) [Example 155, 6-(1-(8-(cyclopropylmethyl)-8-azabicyclo[3.2.1]octan-3-yl)piperidin-4-yl)-1,4-dimethyl-2-(4-(methylsulfonyl)phenyl)-1H-benzo[d]imidazole], for which 160 nM corresponded to half-maximal inhibition (IC50). Besides, the IC50 under setting [1] amounted to 163 nM.
